Measurements as given in patent publication US20160122320A1, “USEFUL COMBINATIONS OF MONOBACTAM ANTIBIOTICS WITH BETA-LACTAMASE INHIBITORS” (Basilea Pharmaceutica AG, priority 2005, published 2016).

Key:
Assay in all cases: MIC, NCCLS broth microdilution
Type in all cases: cell-based
Serratia marcescens S6 = conditions: for MIC of antibiotic: antibiotic alone, no inhibitor
[1] = test system: Klebsiella pneumoniae CF104; conditions: for MIC of antibiotic: antibiotic alone, no inhibitor
Enterobacter cloacae P99 = conditions: for MIC of antibiotic: antibiotic alone, no inhibitor
[2] = test system: Stenotrophomonas malthophilia 1AC736; conditions: Stenotrophomonas maltophilia 1AC736; for MIC of antibiotic: antibiotic alone, no inhibitor
Acinetobacter sp. J2 = conditions: Acinetobacter baumannii J2; for MIC of antibiotic: antibiotic alone, no inhibitor
[3] = test system: Pseudomonas aeruginosa MK1184; conditions: for MIC of antibiotic: antibiotic alone, no inhibitor
[4] = test system: Pseudomonas aeruginosa 1973E; conditions: for MIC of antibiotic: antibiotic alone, no inhibitor
Description: Antimicrobial activity of the compounds and of their combinations was determined against a selection of organisms according to the standard procedures described by the National Committee for Clinical Laboratory Standards (National Committee for Clinical Laboratory. Standards (2000). Methods for Dilution Antimicrobial Susceptibility Tests for Bacteria That Grow Aerobically-Fifth Edition: Approved Standard M7-A5. NCCLS, Wayne, Pa., USA).
In all cases the final concentration of DMSO incubated with the bacteria is less than or equal to 1%. […] Plates were incubated overnight at an appropriate temperature (30° C. or 37° C.) and optical densities assessed by eye. The MIC value is defined as the lowest compound concentration completely inhibiting visible growth of the test organism. When combinations between compounds of formula I with compounds of formula II and are evaluated the compounds of formula I are tested in dilution series as described above while the compounds of formula II and III-XIII were present in all wells at a constant concentration of 4 μg/mL each.

[5] = with clavulanate (clavulanic acid)

In the case of `COn1cc(O)c(=O)cc1CON=C(C(=O)N[C@@H]1C(=O)N(S(=O)(=O)O)[C@H]1C)c1csc(N)n1` [Compound 5, (3S,4S)-3-{2-(2-amino(1,3-thiazol-4-yl))-3-[(5-hydroxy-1-methoxy-4-oxo(2-hydropyridyl))methoxy]-3-azaprop-2-enoylamino}-4-methyl-2-oxoazetidinesulfonic acid], the MIC of antibiotic (Serratia marcescens S6) is reported as 8 µg/mL, the “MIC of antibiotic at fixed inhibitor concentration of 4 mg/L” value (Serratia marcescens S6; with 102 and clavulanate) is reported as 1 µg/mL and the MIC of antibiotic [1] is reported as greater than 32 µg/mL. For the same compound, the “MIC of antibiotic at fixed inhibitor concentration of 4 mg/L” value ([1]; with 102 and clavulanate) was 8 µg/mL, the MIC of antibiotic (Enterobacter cloacae P99) was 32 µg/mL and the “MIC of antibiotic at fixed inhibitor concentration of 4 mg/L” value (Enterobacter cloacae P99; with 102 and clavulanate) was 8 µg/mL. The MIC of antibiotic [2] was 16 µg/mL, the “MIC of antibiotic at fixed inhibitor concentration of 4 mg/L” value ([2]; with 102 and clavulanate) was 4 µg/mL and the MIC of antibiotic (Acinetobacter sp. J2) was greater than 32 µg/mL. For the same compound, the “MIC of antibiotic at fixed inhibitor concentration of 4 mg/L” value (Acinetobacter sp. J2; with 102 and clavulanate) was 32 µg/mL, the MIC of antibiotic [3] was greater than 32 µg/mL and the “MIC of antibiotic at fixed inhibitor concentration of 4 mg/L” value ([3]; with 102 and clavulanate) was greater than 32 µg/mL. The MIC of antibiotic [4] was greater than 32 µg/mL and the “MIC of antibiotic at fixed inhibitor concentration of 4 mg/L” value ([4]; with 102 and clavulanate) was greater than 32 µg/mL.

For `C[C@H]1[C@H](NC(=O)/C(=N\OCc2cc(=O)c(O)cn2C)c2csc(N)n2)C(=O)N1S(=O)(=O)O` [Compound 6, (3S,4S)-3-{(2Z)-2-(2-amino(1,3-thiazol-4-yl))-3-[(5-hydroxy-1-methyl-4-oxo(2-hydropyridyl))methoxy]-3-azaprop-2-enoylamino}-4-methyl-2-oxoazetidinesulfonic acid], the MIC of antibiotic (Serratia marcescens S6) was 4 µg/mL, the “MIC of antibiotic at fixed inhibitor concentration of 4 mg/L” value (Serratia marcescens S6; with 102 and clavulanate) was 0.5 µg/mL and the “MIC of antibiotic at fixed inhibitor concentration of 4 mg/L” value (Serratia marcescens S6; with 206 and clavulanate) was 4 µg/mL. For the same compound, the “MIC of antibiotic at fixed inhibitor concentration of 4 mg/L” value (Serratia marcescens S6; with 315 and clavulanate) was 4 µg/mL, the MIC of antibiotic [1] was greater than 32 µg/mL and the “MIC of antibiotic at fixed inhibitor concentration of 4 mg/L” value ([1]; with 102 and clavulanate) was less than 0.06 µg/mL. The “MIC of antibiotic at fixed inhibitor concentration of 4 mg/L” value ([1]; with 206 and clavulanate) was 0.5 µg/mL, the “MIC of antibiotic at fixed inhibitor concentration of 4 mg/L” value ([1]; with 315 and clavulanate) was 0.5 µg/mL and the MIC of antibiotic (Enterobacter cloacae P99) was 16 µg/mL. The “MIC of antibiotic at fixed inhibitor concentration of 4 mg/L” value (Enterobacter cloacae P99; with 102 and clavulanate) was 8 µg/mL, the “MIC of antibiotic at fixed inhibitor concentration of 4 mg/L” value (Enterobacter cloacae P99; with 206 and clavulanate) was 16 µg/mL and the “MIC of antibiotic at fixed inhibitor concentration of 4 mg/L” value (Enterobacter cloacae P99; with 315 and clavulanate) was 4 µg/mL. The MIC of antibiotic [2] was 8 µg/mL, the “MIC of antibiotic at fixed inhibitor concentration of 4 mg/L” value ([2]; with 102 and clavulanate) was 4 µg/mL and the “MIC of antibiotic at fixed inhibitor concentration of 4 mg/L” value ([2]; with 206 and clavulanate) was 4 µg/mL. The “MIC of antibiotic at fixed inhibitor concentration of 4 mg/L” value ([2]; with 315 and clavulanate) was 2 µg/mL, the MIC of antibiotic (Acinetobacter sp. J2) was greater than 32 µg/mL and the “MIC of antibiotic at fixed inhibitor concentration of 4 mg/L” value (Acinetobacter sp. J2; with 102 and clavulanate) was greater than 32 µg/mL. The “MIC of antibiotic at fixed inhibitor concentration of 4 mg/L” value (Acinetobacter sp. J2; with 206 and clavulanate) was 32 µg/mL, the “MIC of antibiotic at fixed inhibitor concentration of 4 mg/L” value (Acinetobacter sp. J2; with 315 and clavulanate) was greater than 32 µg/mL and the MIC of antibiotic [3] was greater than 32 µg/mL. The “MIC of antibiotic at fixed inhibitor concentration of 4 mg/L” value ([3]; with 102 and clavulanate) was greater than 32 µg/mL, the “MIC of antibiotic at fixed inhibitor concentration of 4 mg/L” value ([3]; with 206 and clavulanate) was greater than 32 µg/mL and the “MIC of antibiotic at fixed inhibitor concentration of 4 mg/L” value ([3]; with 315 and clavulanate) was greater than 32 µg/mL. For the same compound, the MIC of antibiotic [4] was greater than 32 µg/mL, the “MIC of antibiotic at fixed inhibitor concentration of 4 mg/L” value ([4]; with 102 and clavulanate) was greater than 32 µg/mL and the “MIC of antibiotic at fixed inhibitor concentration of 4 mg/L” value ([4]; with 206 and clavulanate) was greater than 32 µg/mL. For the same compound, the “MIC of antibiotic at fixed inhibitor concentration of 4 mg/L” value ([4]; with 315 and clavulanate) was greater than 32 µg/mL.

For `Nc1nc(C(=NOCc2cc(=O)c(O)cn2O)C(=O)NC2CN(S(=O)(=O)O)C2=O)cs1` (stereo not drawn) [Compound 9], the MIC of antibiotic (Serratia marcescens S6) was 16 µg/mL, the “MIC of antibiotic at fixed inhibitor concentration of 4 mg/L” value (Serratia marcescens S6; with 102 and clavulanate) was 1 µg/mL and the MIC of antibiotic [1] was greater than 32 µg/mL. The “MIC of antibiotic at fixed inhibitor concentration of 4 mg/L” value ([1]; with 102 and clavulanate) was 0.5 µg/mL, the MIC of antibiotic (Enterobacter cloacae P99) was greater than 32 µg/mL and the “MIC of antibiotic at fixed inhibitor concentration of 4 mg/L” value (Enterobacter cloacae P99; with 102 and clavulanate) was 32 µg/mL. The MIC of antibiotic [2] was 0.5 µg/mL, the “MIC of antibiotic at fixed inhibitor concentration of 4 mg/L” value ([2]; with 102 and clavulanate) was 0.25 µg/mL and the MIC of antibiotic (Acinetobacter sp. J2) was greater than 32 µg/mL. The “MIC of antibiotic at fixed inhibitor concentration of 4 mg/L” value (Acinetobacter sp. J2; with 102 and clavulanate) was greater than 32 µg/mL, the MIC of antibiotic [3] was greater than 32 µg/mL and the “MIC of antibiotic at fixed inhibitor concentration of 4 mg/L” value ([3]; with 102 and clavulanate) was 4 µg/mL. For the same compound, the MIC of antibiotic [4] was 8 µg/mL and the “MIC of antibiotic at fixed inhibitor concentration of 4 mg/L” value ([4]; with 102 and clavulanate) was 8 µg/mL.

In the case of `CC1C(NC(=O)C(=NOCc2cc(=O)c(O)cn2O)c2noc(N)n2)C(=O)N1S(=O)(=O)O` (stereo not drawn) [Compound 16], the MIC of antibiotic (Serratia marcescens S6) is reported as greater than 32 µg/mL, the “MIC of antibiotic at fixed inhibitor concentration of 4 mg/L” value (Serratia marcescens S6; with 102 and clavulanate) is reported as greater than 32 µg/mL and the MIC of antibiotic [1] is reported as greater than 32 µg/mL. For the same compound, the “MIC of antibiotic at fixed inhibitor concentration of 4 mg/L” value ([1]; with 102 and clavulanate) was 32 µg/mL, the MIC of antibiotic (Enterobacter cloacae P99) was greater than 32 µg/mL and the “MIC of antibiotic at fixed inhibitor concentration of 4 mg/L” value (Enterobacter cloacae P99; with 102 and clavulanate) was greater than 32 µg/mL. The MIC of antibiotic [2] was greater than 32 µg/mL, the “MIC of antibiotic at fixed inhibitor concentration of 4 mg/L” value ([2]; with 102 and clavulanate) was 2 µg/mL and the MIC of antibiotic (Acinetobacter sp. J2) was greater than 32 µg/mL. The “MIC of antibiotic at fixed inhibitor concentration of 4 mg/L” value (Acinetobacter sp. J2; with 102 and clavulanate) was 16 µg/mL, the MIC of antibiotic [3] was greater than 32 µg/mL and the “MIC of antibiotic at fixed inhibitor concentration of 4 mg/L” value ([3]; with 102 and clavulanate) was 16 µg/mL. For the same compound, the MIC of antibiotic [4] was greater than 32 µg/mL and the “MIC of antibiotic at fixed inhibitor concentration of 4 mg/L” value ([4]; with 102 and clavulanate) was 16 µg/mL.

`CC1C(NC(=O)C(=NOCc2cc(=O)c(O)cn2O)c2cccc(N)n2)C(=O)N1S(=O)(=O)O` (stereo not drawn) [Compound 20] was tested, and the MIC of antibiotic (Serratia marcescens S6) was 4 µg/mL, the “MIC of antibiotic at fixed inhibitor concentration of 4 mg/L” value (Serratia marcescens S6; with 102 and clavulanate) was 0.5 µg/mL and the “MIC of antibiotic at fixed inhibitor concentration of 4 mg/L” value (Serratia marcescens S6; with 206 and clavulanate) was 0.5 µg/mL. For the same compound, the “MIC of antibiotic at fixed inhibitor concentration of 4 mg/L” value (Serratia marcescens S6; with 501) was 2 µg/mL, the “MIC of antibiotic at fixed inhibitor concentration of 4 mg/L” value (Serratia marcescens S6; [5]) was 2 µg/mL and the MIC of antibiotic [1] was greater than 32 µg/mL. For the same compound, the “MIC of antibiotic at fixed inhibitor concentration of 4 mg/L” value ([1]; with 102 and clavulanate) was 2 µg/mL, the “MIC of antibiotic at fixed inhibitor concentration of 4 mg/L” value ([1]; with 206 and clavulanate) was 4 µg/mL and the “MIC of antibiotic at fixed inhibitor concentration of 4 mg/L” value ([1]; with 501) was 16 µg/mL. The “MIC of antibiotic at fixed inhibitor concentration of 4 mg/L” value [1, 5] was 32 µg/mL, the MIC of antibiotic (Enterobacter cloacae P99) was greater than 32 µg/mL and the “MIC of antibiotic at fixed inhibitor concentration of 4 mg/L” value (Enterobacter cloacae P99; with 102 and clavulanate) was 16 µg/mL. For the same compound, the “MIC of antibiotic at fixed inhibitor concentration of 4 mg/L” value (Enterobacter cloacae P99; with 206 and clavulanate) was 16 µg/mL, the “MIC of antibiotic at fixed inhibitor concentration of 4 mg/L” value (Enterobacter cloacae P99; with 501) was greater than 32 µg/mL and the “MIC of antibiotic at fixed inhibitor concentration of 4 mg/L” value (Enterobacter cloacae P99; [5]) was greater than 32 µg/mL. For the same compound, the MIC of antibiotic [2] was 4 µg/mL, the “MIC of antibiotic at fixed inhibitor concentration of 4 mg/L” value ([2]; with 102 and clavulanate) was 0.25 µg/mL and the “MIC of antibiotic at fixed inhibitor concentration of 4 mg/L” value ([2]; with 206 and clavulanate) was 0.5 µg/mL. For the same compound, the “MIC of antibiotic at fixed inhibitor concentration of 4 mg/L” value ([2]; with 501) was 0.25 µg/mL, the “MIC of antibiotic at fixed inhibitor concentration of 4 mg/L” value [2, 5] was 0.25 µg/mL and the MIC of antibiotic (Acinetobacter sp. J2) was greater than 32 µg/mL. The “MIC of antibiotic at fixed inhibitor concentration of 4 mg/L” value (Acinetobacter sp. J2; with 102 and clavulanate) was greater than 32 µg/mL, the “MIC of antibiotic at fixed inhibitor concentration of 4 mg/L” value (Acinetobacter sp. J2; with 206 and clavulanate) was greater than 32 µg/mL and the “MIC of antibiotic at fixed inhibitor concentration of 4 mg/L” value (Acinetobacter sp. J2; with 501) was less than 0.06 µg/mL. For the same compound, the “MIC of antibiotic at fixed inhibitor concentration of 4 mg/L” value (Acinetobacter sp. J2; [5]) was greater than 32 µg/mL, the MIC of antibiotic [3] was greater than 32 µg/mL and the “MIC of antibiotic at fixed inhibitor concentration of 4 mg/L” value ([3]; with 102 and clavulanate) was 8 µg/mL. The “MIC of antibiotic at fixed inhibitor concentration of 4 mg/L” value ([3]; with 206 and clavulanate) was greater than 32 µg/mL, the “MIC of antibiotic at fixed inhibitor concentration of 4 mg/L” value ([3]; with 501) was greater than 32 µg/mL and the “MIC of antibiotic at fixed inhibitor concentration of 4 mg/L” value [3, 5] was greater than 32 µg/mL. The MIC of antibiotic [4] was 16 µg/mL, the “MIC of antibiotic at fixed inhibitor concentration of 4 mg/L” value ([4]; with 102 and clavulanate) was 32 µg/mL and the “MIC of antibiotic at fixed inhibitor concentration of 4 mg/L” value ([4]; with 206 and clavulanate) was 16 µg/mL. The “MIC of antibiotic at fixed inhibitor concentration of 4 mg/L” value ([4]; with 501) was 16 µg/mL and the “MIC of antibiotic at fixed inhibitor concentration of 4 mg/L” value [4, 5] was 16 µg/mL.
